{"source": "paper PMC4467461", "about": "“Small-molecule activation of SERCA2a SUMOylation for the treatment of heart failure” (Nature Communications, 2015)", "system": "mouse heart tissue (sham and TAC)", "experiment": "Molecular analysis of heart tissue of N106-infused mice (western blot, immunoprecipitation, ATPase activity)", "assay_type": "in vivo", "procedure": "Protein extracts (20∼50 μg) were obtained from isolated cardiomyocytes, which was lysed in RIPA buffer (R&D Systems Inc., MN, USA) contained protease inhibitors (Complete mini, Roche Diagnostics, IN, USA) and 20 mM NEM (Sigma-Aldrich). For SERCA2a SUMOylation assays, cardiac protein extracts were immunoprecipitated with a SUMO-1 agarose resin (Santa Cruz Biotechnology Inc., CA, USA) for overnight at 4 °C. The resins were washed with cold lysis buffer three times. The immunocomplexes were then resolved by SDS–PAGE and western blot analysis was performed using a SERCA2a-specific antibody. For general western blotting, cardiac proteins (10∼50 μg) were separated on SDS–PAGE gel, transferred to nitrocellulose membrane (Bio-Rad, CA, USA) and blotted with the following primary antibodies: SUMO-1 (1:1,000, R&D Systems Inc.), Ubc9 (1:1,000, R&D Systems Inc.), SAE2 (1:1,000, Abcam Inc., MA, USA), SERCA2a (1:3,000, 21st Century Biochemicals, MA, USA), PLN (1:5,000, Badrilla Ltd., UK), PLN phosphorylation at serine-16 (1:5,000, Badrilla Ltd.), RyR2 (1:5,000, Abcam Inc.), NCX (1:1,000, Novus Biologicals, CO, USA), glyceraldehyde 3-phosphate (1:10,000, Sigma-Aldrich), GATA4 (1:1,000, Millipore, NY, USA) and Sp1 (1:500, Millipore). Secondary antibodies anti-mouse IgG-HRP (1:10,000) and anti-rabbit IgG-HRP (1:10,000) were purchased from Sigma-Aldrich. The immunoreactive bands were visualized by a supersignal chemiluminescence detection reagent (Pierce Biotechnology, IL, USA). Full scans of western blots are presented in Supplementary Fig. 14.\nSERCA2a ATPase activity was determined using a coupled enzymes assay including pyruvate kinase/lactate dehydrogenase/NADH-coupled reactions. Microsomes were enriched by differential density centrifugation. The cardiac cells and tissues were homogenized on ice in homogenization buffer (250 mM sucrose (Sigma-Aldrich), 5 mM HEPES pH7.0 (Sigma-Aldrich), 1 mM phenylmethyl sulfonyl fluoride (Sigma-Aldrich), protease inhibitor cocktail (Roche Life Science, IN, USA)). The homogenates were centrifuged at 1,000g for 10 min at 4 °C, then the supernatants were collected and centrifuged at 12,000g for 15 min at 4 °C. The supernatants were transferred to ultracentrifuge tubes and centrifuged for 1 h at 140,000g at 4 °C (Optima XE-100, Beckman Coulter). The pellets were resuspended in homogenization buffer to determine protein concentration and calcium-dependent ATPase activity assay. Protein concentration was measured with a 2-D Quant Kit (GE Healthcare Life Sciences, PA, USA). The ATPase activity were measured at 25 °C in 50 mM MOPS (Boston Bioproducts, MA, USA), 100 mM KCl (Boston Bioproducts), 5 mM MgCl2 (Boston Bioproducts), 1 mM EDTA (Boston Bioproducts) at pCa 5.0 by using a coupled enzyme system consisting of pyruvate kinase and lactate dehydrogenase, and monitoring the oxidation of the reduced form of NADH at […].\nSupplementary Figure 9. Molecular analysis in N106 treated mice. (a-d) Representative western blots and protein quantification of select cardiac proteins. Mice heart tissue samples were obtained after external jugular vein infusion with vehicle or 10 mg.kg-1of N106 from sham and TAC mice. The experiments shown are representative of three independent Western blots with […]\n(also on this page, place not known: TACSham TACSham TACSham SUMO-1 Conjugates (relative fold) N106Vehicle TACSham Veh RyR2/GAPDH (relative fold)Vehicle N106Vehicle Veh TACSham Veh 0.5 NCX/GAPDH (relative fold) NSNS N106Vehicle N106Vehicle N106Vehicle 200ATPase activity (% of control)Vehicle N106Vehicle TAC PLN/GAPDH (relative fold) P-PLN/PLN (relative fold) MW) […]\nsimilar results. (e) The enzyme activity of SERCA2a was determined by using the same set of heart tissue samples. (f) SUMO-1 conjugate was measured by Western blot analysis with an anti-SUMO-1 antibody. Band intensity was quantified by Image J software. The amount of GAPDH was used as a normalization control. […]"}
{"smiles": "COc1ccc(-c2nnc(Nc3nc4c(OC)cccc4s3)o2)cc1", "note": "[Compound N106, N-(4-methoxybenzo[d]thiazol-2-yl)-5-(4-methoxyphenyl)-1,3,4-oxadiazol-2-amine]", "values": [{"measurement": "GATA4 SUMOylation and its protein levels", "setting": "10 mg kg^−1", "value": "no significant effect"}, {"measurement": "protein levels of Sp1", "setting": "10 mg kg^−1", "value": "not changed"}, {"measurement": "SERCA2a protein levels", "setting": "10 mg kg^−1 infusion", "value": "not significantly changed"}, {"measurement": "protein levels and phosphorylation states of phospholamban", "setting": "10 mg kg^−1 infusion", "value": "Neither protein levels nor phosphorylation states of phospholamban were changed"}, {"measurement": "protein levels of cardiac ryanodine receptor and sodium–calcium exchanger", "setting": "10 mg kg^−1 infusion", "value": "not significant changes"}, {"measurement": "whole SUMO-1 conjugates", "setting": "10 mg kg^−1 infusion", "value": "not significantly changed"}, {"measurement": "SUMOylated specificity protein 1 (Sp1) form", "setting": "TAC heart, 10 mg kg^−1", "value": "significantly induced"}, {"measurement": "SUMOylation of SERCA2a versus vehicle control", "setting": "TAC hearts, 10 mg kg^−1", "value": "significantly increased"}, {"measurement": "SERCA2a’s ATPase activity versus vehicle-treated hearts", "setting": "TAC hearts, 10 mg kg^−1 (P=0.06)", "value": "somewhat higher"}, {"measurement": "SUMOylation of SERCA2a versus vehicle control", "setting": "sham-operated group, 10 mg kg^−1 (P=0.07)", "value": "increasing trend"}]}
